molecular target: Tyk2 (Homo sapiens (Human), UniProt P29597); assay: pSTAT4 Cell Assay (MSD, NK92 cells); assay type: cell-based; settings: MSD
Sequence (P29597 whole entry): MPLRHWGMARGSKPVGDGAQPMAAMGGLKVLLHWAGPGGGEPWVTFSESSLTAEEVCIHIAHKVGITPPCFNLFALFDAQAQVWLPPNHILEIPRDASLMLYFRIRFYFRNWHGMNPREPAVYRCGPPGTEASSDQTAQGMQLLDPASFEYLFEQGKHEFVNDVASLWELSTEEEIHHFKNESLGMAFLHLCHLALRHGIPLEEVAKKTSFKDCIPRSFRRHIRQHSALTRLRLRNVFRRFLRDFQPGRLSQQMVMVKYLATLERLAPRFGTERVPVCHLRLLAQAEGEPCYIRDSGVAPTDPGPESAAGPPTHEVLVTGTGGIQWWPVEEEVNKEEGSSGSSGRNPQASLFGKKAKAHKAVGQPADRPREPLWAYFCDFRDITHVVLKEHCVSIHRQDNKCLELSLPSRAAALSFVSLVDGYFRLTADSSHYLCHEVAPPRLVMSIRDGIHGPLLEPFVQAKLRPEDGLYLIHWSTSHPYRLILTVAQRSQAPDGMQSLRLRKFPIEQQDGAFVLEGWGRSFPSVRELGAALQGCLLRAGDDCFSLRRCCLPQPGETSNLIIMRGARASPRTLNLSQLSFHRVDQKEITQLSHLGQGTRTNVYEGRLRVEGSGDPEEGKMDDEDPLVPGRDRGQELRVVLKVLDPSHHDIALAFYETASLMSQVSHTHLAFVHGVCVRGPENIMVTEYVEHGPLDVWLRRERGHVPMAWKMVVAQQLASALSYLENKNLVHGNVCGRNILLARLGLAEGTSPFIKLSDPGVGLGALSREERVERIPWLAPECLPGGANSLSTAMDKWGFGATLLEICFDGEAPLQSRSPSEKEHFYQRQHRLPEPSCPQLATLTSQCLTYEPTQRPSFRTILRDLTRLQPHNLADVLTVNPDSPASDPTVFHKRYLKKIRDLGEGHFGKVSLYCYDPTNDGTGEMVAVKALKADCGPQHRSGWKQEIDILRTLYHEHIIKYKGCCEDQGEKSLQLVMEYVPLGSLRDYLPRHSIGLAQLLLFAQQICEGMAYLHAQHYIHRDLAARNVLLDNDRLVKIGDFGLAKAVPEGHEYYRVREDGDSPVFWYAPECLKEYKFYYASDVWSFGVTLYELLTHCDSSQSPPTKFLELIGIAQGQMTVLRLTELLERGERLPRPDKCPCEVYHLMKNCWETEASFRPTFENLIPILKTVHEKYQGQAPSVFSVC

Compound | IC50 [nM]
CC(=O)Nc1cc(Nc2cc(C)nc(C(C)(F)F)n2)c(OC[C@H]2C[C@H]2CF)cn1 (racemic) [Example 428, Cis-rac-N-(4-((2-(1,1-difluoroethyl)-6-methylpyrimidin-4-yl)amino)-5-((2-(fluoromethyl)cyclopropyl)methoxy)pyridin-2-yl)acetamide] | 10 to 100

molecular target: JH2 domain of human Tyk2 (Homo sapiens (Human), UniProt P29597); assay: JH2 Biochemical Assay (TR-FRET probe displacement); assay type: binding; settings: JH2 domain of human Tyk2, TR-FRET probe displacement
Sequence (P29597 575-876): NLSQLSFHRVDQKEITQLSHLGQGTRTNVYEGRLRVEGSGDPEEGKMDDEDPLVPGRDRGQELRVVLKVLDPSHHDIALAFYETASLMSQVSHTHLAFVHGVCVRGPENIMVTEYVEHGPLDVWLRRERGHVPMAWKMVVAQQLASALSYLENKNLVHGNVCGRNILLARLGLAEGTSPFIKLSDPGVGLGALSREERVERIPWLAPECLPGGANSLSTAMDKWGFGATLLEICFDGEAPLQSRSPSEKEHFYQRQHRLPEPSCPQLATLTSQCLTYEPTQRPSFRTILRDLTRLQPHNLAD
Experimental: The inhibitory potency of compounds of the disclosure against the kinase activity of recombinantly generated JH2 domain of human Tyk2 was evaluated in a plate-based assay using a TR-FRET assay platform. Briefly, 2 nM of recombinant JH2 domain [10×His-tagged TYK2 JH2 domain (amino acid 575-876)] was combined with 2 nM probe ((S)-6-amino-9-(2-carboxy-4-((1-(3-(8-methyl-5-(methylamino)-8H-imidazo[4,5-d]thiazolo[5,4-b]pyridin-2-yl)phenyl)ethyl)carbamoyl)phenyl)-3-iminio-5-sulfo-3H-xanthene-4-sulfonate), 0.1 nM Tb-labeled anti-His antibody, and compounds of disclosure for 60 minutes. Compounds are tested at either 10 μM or 1 μM top concentration, 10 points of 3-fold dilution. The TR-FRET signal inversely correlates to the amount of probe displaced by compounds and signal was calculated by taking the ratio of fluorescence at 520 nm and 495 nm. The data was normalized and the percent activity versus log concentration of compound was fitted with a 4-parameter logistic model to generate IC50 curves.

Compound | IC50 [nM]
CC(=O)Nc1cc(Nc2cc(C)nc(C(C)(F)F)n2)c(OC[C@H]2C[C@H]2CF)cn1 (racemic) [Example 428, Cis-rac-N-(4-((2-(1,1-difluoroethyl)-6-methylpyrimidin-4-yl)amino)-5-((2-(fluoromethyl)cyclopropyl)methoxy)pyridin-2-yl)acetamide] | ≤ 10
CC(=O)Nc1cc(Nc2cc(C)nc(C(C)(F)F)n2)c(N2CCCC2)cn1 [Example 726, N-(4-((2-(1,1-difluoroethyl)-6-methylpyrimidin-4-yl)amino)-5-(pyrrolidin-1-yl)pyridin-2-yl)acetamide] | 10 to 100
CC(=O)Nc1cc(Nc2cc(C)nc(C(C)(F)F)n2)c(N2CCOCC2)cn1 [Example 727, N-(4-((2-(1,1-difluoroethyl)-6-methylpyrimidin-4-yl)amino)-5-morpholinopyridin-2-yl)acetamide] | 100 to 1000
CC(=O)Nc1cc(Nc2ccnc(C(C)(F)F)n2)c(-n2cc(C#N)cn2)cn1 [Example 732, N-(5-(4-cyanO1H-pyrazol-1-yl)-4-((2-(1,1-difluoroethyl)pyrimidin-4-yl)amino)pyridin-2-yl)acetamide] | 10 to 100
CC(=O)Nc1cc(Nc2ccnc(C(C)(F)F)n2)c(-n2cnc(C)n2)cn1 [Example 734, N-(4-((2-(1,1-difluoroethyl)pyrimidin-4-yl)amino)-5-(3-methyl-1H-1,2,4-triazol-1-yl)pyridin-2-yl)acetamide] | 100 to 1000
CC(=O)Nc1cc(Nc2cc(C)nc(C(C)(F)F)n2)c(-n2cnc(C)n2)cn1 [Example 735, N-(4-((2-(1,1-difluoroethyl)-6-methylpyrimidin-4-yl)amino)-5-(3-methyl-1H-1,2,4-triazol-1-yl)pyridin-2-yl)acetamide] | 10 to 100
CC(=O)Nc1cc(Nc2cc(C)nc(C(C)(F)F)n2)c(-c2cc(CN3CCOCC3)n(C)n2)cn1 [Example 739, N-(4-((2-(1,1-difluoroethyl)-6-methylpyrimidin-4-yl)amino)-5-(1-methyl-5-(morpholinomethyl)-1H-pyrazol-3-yl)pyridin-2-yl)acetamide] | ≤ 10
CC(=O)Nc1cc(Nc2cc(C)nc(C(C)(F)F)n2)c(-c2cnc(C(C)N3CCCC3)cn2)cn1 (centres unmarked) [Example 742, N-(4-((2-(1,1-difluoroethyl)-6-methylpyrimidin-4-yl)amino)-5-(5-(1-(pyrrolidin-1-yl)ethyl)pyrazin-2-yl)pyridin-2-yl)acetamide] | ≤ 10

same assay, conditions: TR-FRET probe displacement, JH2 domain

Compound | IC50 [nM]
CC(=O)Nc1cc(Nc2cc(C)nc(C34COC(C3)C4)n2)c(-c2ccc(F)cn2)cn1 [Example 752, N-(4′-((2-(2-oxabicyclo[2.1.1]hexan-4-yl)-6-methylpyrimidin-4-yl)amino)-5-fluorO[2,3′-bipyridin]-6′-yl)acetamide] | ≤ 10
CC(=O)Nc1cc(Nc2cc(C)nc(C(C)(F)F)n2)c(-c2nc(CN3CCN(C)CC3)cs2)cn1 [Example 785, N-(4-((2-(1,1-difluoroethyl)-6-methylpyrimidin-4-yl)amino)-5-(4-((4-methylpiperazin-1-yl)methyl)thiazol-2-yl)pyridin-2-yl)acetamide] | ≤ 10
CC(=O)Nc1cc(Nc2cc(C)nc(C(C)(F)F)n2)c(-c2cc(CN3CCOCC3)ccn2)cn1 [Example 806, N-(4′-((2-(1,1-difluoroethyl)-6-methylpyrimidin-4-yl)amino)-4-(morpholinomethyl)-[2,3′-bipyridin]-6′-yl)acetamide] | ≤ 10
COCCOc1cc(Nc2ccnc(NC(C)=O)c2)nc(C(C)(F)F)n1 [Example 809, N-(4-((2-(1,1-difluoroethyl)-6-(2-methoxyethoxy)pyrimidin-4-yl)amino)pyridin-2-yl)acetamide] | 10 to 100
CC(=O)Nc1cc(Nc2cccc(C(C)(F)F)n2)c(-c2ccc3c(n2)OCC(C)(C)O3)cn1 [Example 820, N-(4-((6-(1,1-difluoroethyl)pyridin-2-yl)amino)-5-(2,2-dimethyl-2,3-dihydro-[1,4]dioxino[2,3-b]pyridin-6-yl)pyridin-2-yl)acetamide] | ≤ 10

Reference: US20260028365A1 (BIOGEN MA INC., priority 2022, published 2026)
